Results: ChEMBL document CHEMBL4699613, “Synthesis and biological evaluation of indolylglyoxylamide bisphosphonates, antimitotic microtubule-targeting derivatives of indibulin with improved aqueous solubility” (Bioorg Med Chem Lett, 2020)

Tests used:
Paracentrotus lividus [1] = assay: Antimitotic activity against sea urchin embryo assessed as cleavage arrest measured 2.5 to 5.5 hrs post-fertilization using compound stored for 1 month in 96% EtOH at room temperature by light microscopy analysis; type: functional; settings: time hrs 2.5-5.5
Paracentrotus lividus [2] = assay: Antimitotic activity against sea urchin embryo assessed as cleavage alteration measured 2.5 to 5.5 hrs post-fertilization using compound stored for 2 days in 96% EtOH at room temperature by light microscopy analysis; type: functional; settings: time hrs 2.5-5.5
Paracentrotus lividus [3] = assay: Induction of microtubule destabilization in sea urchin embryo assessed as embryo spinning measured after 0.5 to 20 hrs; type: tissue-based; settings: time hrs 0.5-20
Paracentrotus lividus [4] = assay: Antimitotic activity against sea urchin embryo assessed as cleavage alteration measured 2.5 to 5.5 hrs post-fertilization using compound stored for 4 days in 96% EtOH at room temperature by light microscopy analysis; type: functional; settings: time hrs 2.5-5.5
Paracentrotus lividus [5] = assay: Antimitotic activity against sea urchin embryo assessed as cleavage arrest measured 2.5 to 5.5 hrs post-fertilization using compound stored for 1 hr in 96% EtOH at room temperature by light microscopy analysis; type: functional; settings: time hrs 2.5-5.5
Paracentrotus lividus [6] = assay: Antimitotic activity against sea urchin embryo assessed as cleavage arrest measured 2.5 to 5.5 hrs post-fertilization using compound stored for 4 days in 96% EtOH at room temperature by light microscopy analysis; type: functional; settings: time hrs 2.5-5.5
Paracentrotus lividus [7] = assay: Antimitotic activity against sea urchin embryo assessed as cleavage alteration measured 2.5 to 5.5 hrs post-fertilization using compound stored for 1 hr in 96% EtOH at room temperature by light microscopy analysis; type: functional; settings: time hrs 2.5-5.5
Paracentrotus lividus [8] = assay: Antimitotic activity against sea urchin embryo assessed as cleavage arrest measured 2.5 to 5.5 hrs post-fertilization using compound stored for 2 days in 96% EtOH at room temperature by light microscopy analysis; type: functional; settings: time hrs 2.5-5.5
Paracentrotus lividus [9] = assay: Antimitotic activity against sea urchin embryo assessed as cleavage alteration measured 2.5 to 5.5 hrs post-fertilization using compound stored for 1 month in 96% EtOH at room temperature by light microscopy analysis; type: functional; settings: time hrs 2.5-5.5
Paracentrotus lividus [10] = assay: Antimitotic activity against sea urchin embryo assessed as cleavage arrest measured 3 to 6 hrs post-fertilization by light microscopy analysis; type: functional; settings: time hrs 3-6
Paracentrotus lividus [11] = assay: Antimitotic activity against sea urchin embryo assessed as cleavage alteration measured 3 to 6 hrs post-fertilization by light microscopy analysis; type: functional; settings: time hrs 3-6
Ca-Ski = assay: Cytotoxicity against human Ca-Ski cells assessed as cell growth inhibition; type: functional, cell-based
PANC-1 = assay: Cytotoxicity against human PANC-1 cells assessed as cell growth inhibition measured after 72 hrs by MTT assay; type: functional, cell-based; settings: PANC-1, 72 h
SiHa = assay: Cytotoxicity against human SiHa cells assessed as cell growth inhibition; type: functional, cell-based
HeLa = assay: Cytotoxicity against human HeLa cells assessed as cell growth inhibition; type: functional, cell-based
BXPC-3 = assay: Cytotoxicity against human BXPC-3 cells assessed as cell growth inhibition measured after 72 hrs by MTT assay; type: functional, cell-based; settings: BXPC-3, 72 h
CFPAC-1 = assay: Cytotoxicity against human CFPAC-1 cells assessed as cell growth inhibition measured after 72 hrs by MTT assay; type: functional, cell-based; settings: CFPAC-1, 72 h
MCF7 = assay: Cytotoxicity against human MCF7 cells assessed as cell growth inhibition measured after 24 to 48 hrs by SRB assay; type: functional, cell-based
[12] = Cytotoxicity against human KKU-100 cells assessed as cell growth inhibition after 48 hrs; type: functional, cell-based; settings: KKU100, 48 h
Paracentrotus lividus [13] = assay: Antimitotic activity against sea urchin embryo assessed as cleavage alteration measured 2.5 to 5.5 hrs post-fertilization using compound stored for 13 hrs in 96% EtOH at room temperature by light microscopy analysis; type: functional; settings: time hrs 2.5-5.5
Paracentrotus lividus [14] = assay: Antimitotic activity against sea urchin embryo assessed as cleavage arrest measured 2.5 to 5.5 hrs post-fertilization using compound stored for 4.5 days in 96% EtOH at room temperature by light microscopy analysis; type: functional; settings: time hrs 2.5-5.5
Paracentrotus lividus [15] = assay: Antimitotic activity against sea urchin embryo assessed as cleavage alteration measured 2.5 to 5.5 hrs post-fertilization using compound stored for 4.5 days in 96% EtOH at room temperature by light microscopy analysis; type: functional; settings: time hrs 2.5-5.5
Paracentrotus lividus [16] = assay: Antimitotic activity against sea urchin embryo assessed as cleavage arrest measured 2.5 to 5.5 hrs post-fertilization using compound stored for 13 hrs in 96% EtOH at room temperature by light microscopy analysis; type: functional; settings: time hrs 2.5-5.5
Paracentrotus lividus [17] = assay: Antimitotic activity against sea urchin embryo assessed as cleavage arrest measured 2.5 to 5.5 hrs post-fertilization using compound stored for 2.5 days in 96% EtOH at room temperature by light microscopy analysis; type: functional; settings: time hrs 2.5-5.5
Paracentrotus lividus [18] = assay: Antimitotic activity against sea urchin embryo assessed as cleavage alteration measured 2.5 to 5.5 hrs post-fertilization using compound stored for 2.5 days in 96% EtOH at room temperature by light microscopy analysis; type: functional; settings: time hrs 2.5-5.5
[19] = Aqueous solubility of the compound at physiological pH by H-NMR analysis; type: physicochemical; settings: aqueous solution
SK-OV-3 = assay: Cytotoxicity against human SK-OV-3 cells assessed as cell growth inhibition; type: functional, cell-based
PC-3 = assay: Cytotoxicity against human PC-3 cells assessed as cell growth inhibition; type: functional, cell-based
HFF = assay: Cytotoxicity against human HFF cells assessed as cell growth inhibition; type: cell-based
A549 = assay: Cytotoxicity against human A549 cells assessed as cell growth inhibition; type: functional, cell-based
DU-145 = assay: Cytotoxicity against human DU-145 cells assessed as cell growth inhibition; type: functional, cell-based
HCT-116 = assay: Cytotoxicity against human HCT-116 cells assessed as cell growth inhibition; type: functional, cell-based
A-375 = assay: Cytotoxicity against human A-375 cells assessed as cell growth inhibition; type: functional, cell-based
T47D = assay: Cytotoxicity against human T47D cells assessed as cell growth inhibition; type: functional, cell-based
Paracentrotus lividus [20] = assay: Antimitotic activity against sea urchin embryo assessed as cleavage alteration measured 2.5 to 6 hrs post-fertilization by light microscopy analysis; type: functional; settings: time hrs 2.5-6
[21] = Selectivity ratio of IC50 for human HFF cells to IC50 for human A-375 cells assessed as cell growth inhibition
Paracentrotus lividus [22] = assay: Antimitotic activity against sea urchin embryo assessed as cleavage arrest measured 2.5 to 6 hrs post-fertilization by light microscopy analysis; type: functional; settings: time hrs 2.5-6
[23] = Aggregation property of the compound in water; type: physicochemical; settings: buffer

Work on `CCOP(=O)(OCC)C(Cn1cc(C(=O)C(=O)Nc2ccc(OC)cc2)c2ccccc21)P(=O)(OCC)OCC` yielded an EC (Paracentrotus lividus [1]) of 0.005 µM, an EC (Paracentrotus lividus [2]) of 0.02 µM and an EC (Paracentrotus lividus [3]) of 0.2 µM. For the same molecule, the EC (Paracentrotus lividus [4]) was 0.005 µM, the EC (Paracentrotus lividus [5]) was 0.2 µM and the EC (Paracentrotus lividus [6]) was 0.02 µM. The EC (Paracentrotus lividus [7]) was 0.5 µM, the EC (Paracentrotus lividus [8]) was 0.1 µM and the EC (Paracentrotus lividus [9]) was 0.002 µM.
In the case of `COc1cccc(NC(=O)C(=O)c2c[nH]c3cc(F)ccc23)c1`, the EC (Paracentrotus lividus [10]) is reported as over 4 µM, the EC (Paracentrotus lividus [3]) is reported as over 4 µM and the EC (Paracentrotus lividus [11]) is reported as 0.2 µM.
For `O=P(O)(O)C(O)(Cn1ccnc1)P(=O)(O)O` [ZOLEDRONIC ACID], the IC50 (Ca-Ski) was 10 µM, the IC50 (PANC-1) was 10 µM and the IC50 (SiHa) was 10 µM. For the same molecule, the IC50 (HeLa) was 10 µM, the IC50 (BXPC-3) was 10 µM and the IC50 (CFPAC-1) was 10 µM.
With `NCCCC(O)(P(=O)(O)O)P(=O)(O)O` [ALENDRONIC ACID] the IC50 (MCF7) was 69.5 µM.
For `O=C(Nc1ccc2c(c1)OCCO2)C(=O)c1c[nH]c2cc(F)ccc12`, the EC (Paracentrotus lividus [10]) was 0.02 µM, the EC (Paracentrotus lividus [3]) was 0.5 µM and the EC (Paracentrotus lividus [11]) was 0.005 µM.
`NCCC(O)(P(=O)(O)O)P(=O)(O)O` [PAMIDRONIC ACID] gave an IC50 (MCF7) of 22.9 µM and an IC50 [12] of 147 µM.
With `O=P(O)(O)C(O)(Cc1cccnc1)P(=O)(O)O` [RISEDRONIC ACID] the IC50 (MCF7) was 248 µM.
`CCOP(=O)(OCC)C(Cn1cc(C(=O)C(=O)Nc2ccc(OC)cc2)c2ccc(F)cc21)P(=O)(OCC)OCC` gave an EC (Paracentrotus lividus [3]) of 0.5 µM, an EC (Paracentrotus lividus [5]) of 0.2 µM and an EC (Paracentrotus lividus [7]) of 0.5 µM.
`CCOP(=O)(OCC)C(Cn1cc(C(=O)C(=O)Nc2ccc3c(c2)OCCO3)c2ccc(F)cc21)P(=O)(OCC)OCC` gave an EC (Paracentrotus lividus [13]) of 0.02 µM, an EC (Paracentrotus lividus [14]) of 0.01 µM and an EC (Paracentrotus lividus [15]) of under 0.01 µM. For the same molecule, the EC (Paracentrotus lividus [3]) was 0.1 µM, the EC (Paracentrotus lividus [5]) was 0.2 µM and the EC (Paracentrotus lividus [16]) was 0.05 µM. It also gave an EC (Paracentrotus lividus [7]) of 0.5 µM, an EC (Paracentrotus lividus [17]) of 0.02 µM and an EC (Paracentrotus lividus [18]) of under 0.02 µM.
In the case of `COc1ccc(NC(=O)C(=O)c2cn(CC(P(=O)([O-])[O-])P(=O)([O-])[O-])c3ccccc23)cc1.[Na+].[Na+].[Na+].[Na+]`, the solubility [19] is reported as 10000 µg/mL.
Work on `Nc1ncnc2c1ccn2[C@@H]1O[C@H](CO)[C@@H](O)[C@H]1O` [TUBERCIDIN] yielded an IC50 (SK-OV-3) of 0.131 µM, an IC50 (PC-3) of 0.076 µM and an IC50 (HFF) of 0.79 µM. The IC50 (A549) was 0.044 µM, the IC50 (DU-145) was 0.256 µM and the IC50 (HCT-116) was 0.082 µM. It also gave an IC50 (A-375) of 0.043 µM and an IC50 (T47D) of 0.013 µM.
In the case of `COc1ccc(NC(=O)C(=O)c2cn(CC(P(=O)(O)O)P(=O)(O)O)c3ccccc23)cc1` [listing 1 of 2 here], the EC (Paracentrotus lividus [20]) is reported as 0.001 µM, the IC50 (SK-OV-3) is reported as 3.23 µM and the IC50 (PC-3) is reported as 7.54 µM. For the same molecule, the IC50 (HFF) was 2.39 µM, the IC50 (A549) was 0.223 µM and the “Ratio IC50” value [21] was 70. It also gave an IC50 (DU-145) of 0.478 µM, an IC50 (HCT-116) of 0.222 µM and an IC50 (A-375) of 0.034 µM. It also gave an EC (Paracentrotus lividus [22]) of 0.002 µM and an IC50 (T47D) of 0.658 µM.
For `COc1ccc(NC(=O)C(=O)c2cn(CC(P(=O)(O)O)P(=O)(O)O)c3ccccc23)cc1` [listing 2 of 2 here], the EC (Paracentrotus lividus [3]) was 0.005 µM.
`CCOP(=O)(OCC)C(Cn1cc(C(=O)C(=O)Nc2cccc(OC)c2)c2ccc(F)cc21)P(=O)(OCC)OCC` showed an EC (Paracentrotus lividus [3]) of over 4 µM, an EC (Paracentrotus lividus [5]) of over 4 µM and an EC (Paracentrotus lividus [7]) of 1 µM.
Molecule `CCOP(=O)(OCC)C(Cn1cc(C(=O)C(=O)Nc2ccc3c(c2)OCCO3)c2ccccc21)P(=O)(OCC)OCC` has an EC (Paracentrotus lividus [3]) of 0.1 µM, an EC (Paracentrotus lividus [5]) of 0.2 µM and an EC (Paracentrotus lividus [7]) of 0.5 µM.
Work on `O=C(Nc1ccncc1)C(=O)c1cn(Cc2ccc(Cl)cc2)c2ccccc12` [INDIBULIN] yielded an EC (Paracentrotus lividus [20]) of 0.01 µM, an IC50 (SK-OV-3) of 0.2 µM and an IC50 (PC-3) of 0.04 µM. The IC50 (A549) was 0.398 µM, the EC (Paracentrotus lividus [3]) was 0.1 µM and the IC50 (DU-145) was 0.05 µM. The IC50 (HCT-116) was 0.05 µM, the CAC [23] was 0.00039 mg/mL and the EC (Paracentrotus lividus [22]) was 0.02 µM. It also gave an IC50 (T47D) of 0.04 µM.
With `CCOP(=O)(OCC)C(Cn1cc(C(=O)C(=O)O)c2ccc(F)cc21)P(=O)(OCC)OCC` the EC (Paracentrotus lividus [20]) was over 4 µM, the EC (Paracentrotus lividus [3]) was over 4 µM and the EC (Paracentrotus lividus [22]) was over 4 µM.
`O=C(Nc1ccc2c(c1)OCCO2)C(=O)c1c[nH]c2ccccc12` showed an EC (Paracentrotus lividus [10]) of 0.005 µM, an EC (Paracentrotus lividus [3]) of 0.02 µM and an EC (Paracentrotus lividus [11]) of 0.002 µM.
In the case of `COc1ccc(NC(=O)C(=O)c2c[nH]c3cc(F)ccc23)cc1`, the EC (Paracentrotus lividus [10]) is reported as 0.005 µM, the EC (Paracentrotus lividus [3]) is reported as 1 µM and the EC (Paracentrotus lividus [11]) is reported as 0.001 µM.
`COc1ccc(NC(=O)C(=O)c2c[nH]c3ccccc23)cc1` showed an EC (Paracentrotus lividus [10]) of 0.005 µM, an EC (Paracentrotus lividus [3]) of 0.2 µM and an EC (Paracentrotus lividus [11]) of 0.001 µM.
